These results are taken from patent US7265111B2, “Adenosine analogues and their use as pharmaceutical agents” (Sanofi-Aventis Deutschland GmbH, priority 2002, dated 2007).

As usually defined, the pEC50 is the negative decadic logarithm of the EC50, by convention in mol/L. The term pIC50 denotes the IC50 on a negative log10 scale, so that one unit is a factor of ten. What is called melting point is the temperature of the solid-liquid transition.

pEC50, pIC50: −log10 of the molar value.

For one data set, the target named is T1, Adenosine A1 receptor (Homo sapiens, UniProt P30542).
T1 construct: expressed in transfected cells; host or cells: CHO (Chinese hamster ovary) cells, stably double-transfected
T1 sequence (P30542 1-326): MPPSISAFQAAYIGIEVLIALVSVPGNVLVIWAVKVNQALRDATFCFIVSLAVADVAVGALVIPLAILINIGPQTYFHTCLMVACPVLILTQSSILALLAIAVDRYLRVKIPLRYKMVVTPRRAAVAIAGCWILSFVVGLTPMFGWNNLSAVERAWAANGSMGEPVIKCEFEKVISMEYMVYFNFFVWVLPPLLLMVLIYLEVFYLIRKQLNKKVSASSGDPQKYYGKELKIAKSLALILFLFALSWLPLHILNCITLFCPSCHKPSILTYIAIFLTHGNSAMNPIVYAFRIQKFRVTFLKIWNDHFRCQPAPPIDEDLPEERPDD
Description: FLIPR intracellular Ca2+ functional assay, recombinant CHO cells (A1/Gα6qi4myr). Format: cell-based. The following applies: read-out: EC50 values (agonist activity at adenosine receptors) A1. As to the method:
(§1) In Vitro Functional Assays with Recombinant Cell Lines:
(§2) Functional assays were performed by detection of agonist-induced changes in the intracellular concentration of Ca^2+ in recombinant cell lines expressing adenosine receptor subtypes using the FLIPR™ (fluorescence imaging plate reader, Molecular Devices) technology. To allow optimal signalling through Ca^2+, chinese hamster ovary (CHO) cells were stably double-transfected with cDNAs to achieve expression of suitable combinations of adenosine receptor subtypes (A1, A2a, A2b or A3) with either G-protein Gα16 or hybrid protein Gα6qi4myr (German Patent Application no. 100333532.2). Optimal signals were achieved using combinations as follows:
(§3) For assays, recombinant cells were seeded in 96-well dishes (50000 cells/well) and grown overnight. Medium was then removed and cells incubated for 1 hour in buffer containing the dye Fluo-4. After incubation with dye, cells were washed, test compound added and changes in intracellular Ca^2+ concentration measured by FLIPR. Measured values were expressed as % change relative to controls (0%: no test compound added; 100%: 1 μM Adenosine added) and used for calculation of dose-response curves and subsequent determination of EC50 values.

A further data set concerns the target T2, Adenosine A3 receptor (Homo sapiens, UniProt P0DMS8).
T2 construct: expressed in transfected cells; host or cells: CHO (Chinese hamster ovary) cells, stably double-transfected
T2 sequence (P0DMS8 1-318): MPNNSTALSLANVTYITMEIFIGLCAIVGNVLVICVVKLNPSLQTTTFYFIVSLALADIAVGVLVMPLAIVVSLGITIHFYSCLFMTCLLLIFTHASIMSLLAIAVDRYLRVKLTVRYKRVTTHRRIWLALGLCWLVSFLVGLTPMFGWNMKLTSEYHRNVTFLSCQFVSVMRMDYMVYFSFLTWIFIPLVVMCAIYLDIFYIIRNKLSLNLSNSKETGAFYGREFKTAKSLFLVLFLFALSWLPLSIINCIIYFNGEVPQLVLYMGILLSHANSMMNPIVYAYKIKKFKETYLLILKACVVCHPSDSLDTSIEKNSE
The experiment in a line: FLIPR intracellular Ca2+ functional assay, recombinant CHO cells (A3/Gα6qi4myr). The class given is cell-based. The following applies: for pEC50: read-out: EC50 values (agonist activity at adenosine receptors) A3. As to the method: as §1, §2, §3

The subject of a further data set is isolated rat adipocytes. Description: Antilipolytic effect in isolated rat adipocytes. Format: cell-based. The note with it: Adipocyte, adenosine deaminase-induced lipolysis (glycerol and free fatty acid release). Here is the method: E. Antilipolytic Effect in Isolated Rat Adipocytes:
For the preparation of isolated rat adipocytes, epididymal fat pads were obtained from male Sprague-Dawley rats (150-180 g) killed by decapitation. The main fat pad blood vessel was removed with forceps and the pads were cut into small pieces. Digestion was carried out at 37° C. in a shaking water bath by treating 1 g of sliced pad for 20 min with 3 ml of 1 mg/ml collagenase (type I, CLS, Worthington) in 1% BSA, fraction V, in KRH (Krebs-Ringer solution buffered with 25 mM HEPES/KOH, pH 7.4, containing 2.5 mM CaCl2, 2 mM glucose, 1 mM sodium pyruvate, 0.5 units/ml adenosin deaminase and 200 nM phenylisopropyl adenosine). The adipocytes were filtered through nylon mesh of sufficient pore size that no pressure other than gentle teasing with a plastic spatula was necessary for the cells to pass through. After three cycles of centrifugation (500 g, 1 min), aspiration of the infranatant. and resuspension in KRH containing 1% BSA, the cells were suspended in KRH containing 4% defatted BSA. Small aliquots of the final suspension were aspirated into capillary hematocrit tubes and centrifuged for 1 min in a Microhematocrit centrifuge in order to determine what fraction of the suspension consisted of fat cells. Results expressed as activities per unit volume of packed adipocytes (corresponding to equivalent numbers of cells) are based on this centrifugation procedure. Lipolysis was initiated by addition of a 100 μl aliquot of the adipocyte suspension to 700 μl of incubation medium [prewarmed to 37° C. and consisting of KRH, 4% defatted BSA and 1 U/ml adenosine deaminase (type I, Sigma)], with or without addition of 8 μl of a solution of the appropriate test substance in 100% DMSO (at a concentration corresponding to 100 times its concentration in the final mixture). […] Incubations were performed in 5 ml polypropylene vials agitated in a shaking water bath (140 cycles/min, amplitude 4.5 cm) at 37° C. for 20, 40, and 60 min. The incubation was terminated by addition of 200 μl of 50 mM EDTA buffered to pH 7.4 with Tris. For the glycerol determination, the whole mixture was mixed rapidly and homogenized with a ground glass pestle in a 1 ml ground glass homogenizing tube (10 pulses). The homogenate was transferred immediately to a 1.5 ml Eppendorf cup precooled to 4° C., after which the extracts were maintained at 4° C. The homogenate was then centrifuged (10,000 g, 15 min) and the infranatant below the fat cake removed with a glass Pasteur pipette. taking care not to aspirate the membrane pellet. and transferred to another Eppendorf cup. 300 μl aliquots of the infranatant were added to 300 μl volumes of 10% (w/v) HClO4. The precipitate was in each case removed by centrifugation (10,000 g, 2 min) and the supernatant neutralized with 20% (w/v) KOH, followed by addition of 50 μl of 1 M Tris/HCl, pH 7.4, A 50 μl sample was then incubated (5 min, 37° C.) with 1 ml of 0.1 M HEPES/KOH, pH 7.5, containing 2 mM ATP, 0.5 mM 4-aminoantipyrine, 1 mM EDTA, 0.5 U glycerol kinase, 4 U glycerol-3-phosphate oxidase, 2 U peroxidase, 2.7 mM p-chlorophenol, 0.04% Triton X-100 and 2 mM MgSO4.7H2O, and the glycerol content determined from the absorbance at 505 nm. For the determination of free fatty acids, 300 μl aliquots of the incubation mixture were added to 3 ml of chloroform/heptane (1:1 v/v) containing 2% (v/v) methanol. and the liberated free fatty acids determined with copper reagent and bathocuproine. The inhibitory activities of the cyclipostins were calculated from the combined results (glycerol and free fatty acid release) by plotting the log of the dose against the percent response (with the adenosine deaminase-induced lipolysis set at 100%). Data in the linear portion of the log (dose)-percent response curves were analyzed using parallel-line bioassay techniques.

Another data set deals with T3, Adenosine A2a receptor (Homo sapiens, UniProt P29274).
T3 construct: expressed in transfected cells; host or cells: CHO (Chinese hamster ovary) cells, stably double-transfected
Description: FLIPR intracellular Ca2+ functional assay, recombinant CHO cells (A2a/Gα16). Format: cell-based. As to the method:
as §1, §2, §3

The next data set deals with T4, Adenosine A2b receptor (Homo sapiens, UniProt P29275).
T4 construct: expressed in transfected cells; host or cells: CHO (Chinese hamster ovary) cells, stably double-transfected
T4 sequence (P29275 1-332): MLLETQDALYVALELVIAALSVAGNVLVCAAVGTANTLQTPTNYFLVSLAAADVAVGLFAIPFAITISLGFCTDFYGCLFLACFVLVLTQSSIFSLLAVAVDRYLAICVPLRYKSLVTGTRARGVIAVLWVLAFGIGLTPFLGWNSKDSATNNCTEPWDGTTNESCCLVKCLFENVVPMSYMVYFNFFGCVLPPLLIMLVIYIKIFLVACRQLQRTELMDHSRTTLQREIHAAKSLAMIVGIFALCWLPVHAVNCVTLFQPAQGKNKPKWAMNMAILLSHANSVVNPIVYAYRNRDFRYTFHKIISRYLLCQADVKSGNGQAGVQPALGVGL
The experiment in a line: FLIPR intracellular Ca2+ functional assay, recombinant CHO cells (A2b/Gα16). Format: cell-based. The following applies: for pEC50: read-out: EC50 values (agonist activity at adenosine receptors) A2B. Here is the method: as §1, §2, §3

The subject of data set [1] is isolated guinea pig atrium. Description: Effect on the isolated guinea pig atrium (contractile force, heart rate). As to the method:
D. Effect on the Isolated Guinea Pig Atrium:
Guinea pigs of either sex were killed by a blow on the back of the neck and exsanguinated.
Their heart was taken out and the atria removed. The preparation (atrium) was immediately transferred to Ringer solution (JT 431) which was at a temperature of 32° C. and was bubbled with a mixture of 95% O2 and 5% CO2. The composition of the solution in […] was: NaCl 9.0; KCl 0.42 CaCl2 0.24; NaHCO3 0.2; glucose 1.0. The atrium beats spontaneously with an initial tension of 500 mg. The contractile force and the heart rate was recorded with a computer program and automatically calculated (B-mon and A-mon PC programs. Fa. Jäckel. Hanau. GERMANY). After equilibration, the test compound was added to a final bath concentration. N was 4-6 per concentration.

T3 sequence (P29274 whole entry): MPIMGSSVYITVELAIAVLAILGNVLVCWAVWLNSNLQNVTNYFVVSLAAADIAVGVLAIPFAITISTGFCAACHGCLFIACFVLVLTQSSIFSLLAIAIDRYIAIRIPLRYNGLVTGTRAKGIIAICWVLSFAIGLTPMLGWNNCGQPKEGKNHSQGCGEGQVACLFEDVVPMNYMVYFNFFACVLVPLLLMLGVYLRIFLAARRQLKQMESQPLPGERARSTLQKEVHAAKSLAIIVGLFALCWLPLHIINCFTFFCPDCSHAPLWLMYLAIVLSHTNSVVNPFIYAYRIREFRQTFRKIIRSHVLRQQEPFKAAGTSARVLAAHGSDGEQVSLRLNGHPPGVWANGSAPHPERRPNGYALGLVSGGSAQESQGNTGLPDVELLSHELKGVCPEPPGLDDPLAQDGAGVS

For `O[C@@H]1[C@@H](CF)C[C@@H](n2cnc3c(N[C@H]4CCN(c5cccc(Cl)c5)C4)ncnc32)[C@@H]1O` [Example 1, (1R,2S,3R,5S)-3-{6-[1-(3-chloro-phenyl-1-yl)-pyrrolidin-3(S)-ylamino]-purin-9-yl}-5-fluoromethyl-cyclopentane-1,2-diol], the pEC50 at Adenosine A1 receptor is 6.82; at Adenosine A3 receptor, less than 4.30; at Adenosine A2b receptor it was less than 4.52. In addition, the pIC50 with isolated rat adipocytes was 8.30. The “EC50 values (agonist activity at adenosine receptors) A2A” value on Adenosine A2a receptor is “inactive”. The Heart rate entry in data set [1] (at 1–100 μM) is reported as “no effect at 1–100 μM”.
On to `CC[C@H](Cc1sccc1Cl)Nc1ncnc2c1ncn2[C@@H]1C[C@H](CF)[C@@H](O)[C@H]1O` [Example 2, (1R,2S,3R,5S)-3-{6-[(R)-1-(3-chloro-thiophen-2-ylmethyl) -propylamino]-purin-9-yl}-5-fluoromethyl-cyclopentane-1,2-diol], for which the figures for the negative-log EC50 (pEC50) on Adenosine A1 receptor, at Adenosine A3 receptor and at Adenosine A2b receptor were 7.70, less than 4.40 and 5.47, respectively. For the same molecule, the negative-log IC50 (pIC50) in the data set on isolated rat adipocytes is 7.70. Moreover, the “EC50 values (agonist activity at adenosine receptors) A2A” value at Adenosine A2a receptor is “inactive”. Also, the Contractile force in data set [1] (at 10 μM) is −4% at 10 μM. For the same molecule, the Heart rate in data set [1] (at 10 μM) is recorded as −4% at 10 μM.
Consider `O[C@@H]1[C@@H](COC(F)(F)F)C[C@@H](n2cnc3c(N[C@H]4CCN(c5cccc(Cl)c5)C4)ncnc32)[C@@H]1O` [Example 3, (1R,2S,3R,5R)-3-{6-[1-(3-chloro-phenyl-1-yl)-pyrrolidin-3(S)-ylamino]-purin-9-yl}-5-trifluoromethoxymethyl-cyclopentane-1,2-diol], for which the negative-log EC50 (pEC50) was 5.43 on Adenosine A1 receptor and less than 4.52 at Adenosine A2a receptor (read-out: EC50 values (agonist activity at adenosine receptors) A2A). Moreover, the “EC50 values (agonist activity at adenosine receptors) A3” value at Adenosine A3 receptor was “inactive”. The “EC50 values (agonist activity at adenosine receptors) A2B” value at Adenosine A2b receptor is “inactive”.
On to `O[C@@H]1[C@@H](CF)C[C@@H](n2cnc3c(N[C@H]4CCN(c5ccc(C(F)(F)F)cn5)C4)ncnc32)[C@@H]1O` [Example 4, (1R,2S,3R,5S)-3-{6-[1-(5-trifluoromethyl-pyridin-2-yl)-pyrrolidin-3(S)-ylamino]-purin-9-yl}-5-fluoromethyl-cyclopentane-1,2-diol], for which the results for the pEC50 at Adenosine A1 receptor, at Adenosine A3 receptor and at Adenosine A2b receptor were 5.79, less than 4.30 and less than 4.52, respectively. Further, the pIC50 in the data set on isolated rat adipocytes is 7.00. For the same molecule, the “EC50 values (agonist activity at adenosine receptors) A2A” value at Adenosine A2a receptor is given as “Inactive”. In addition, the Contractile force in data set [1] (at 10 μM) is −7% at 10 μM. For the same molecule, the Heart rate entry in data set [1] (at 1–100 μM) is on record as “no effect at 1–100 μM”.
For `O[C@@H]1[C@@H](CF)C[C@@H](n2cnc3c(N[C@H]4CCN(c5ccc(Cl)cn5)C4)ncnc32)[C@@H]1O` [Example 6, (1R,2S,3R,5S)-3-{6-[1-(5-chloro-pyridin-2-yl)-pyrrolidin-3(S) -ylamino]-purin-9-yl}-5-fluoromethyl-cyclopentane-1,2-diol], the pEC50 at Adenosine A1 receptor was 5.90; at Adenosine A2b receptor it was less than 4.52. In addition, at Adenosine A3 receptor, the “EC50 values (agonist activity at adenosine receptors) A3” value is “inactive”. The same molecule gave a negative logarithm of the IC50 (pIC50) with isolated rat adipocytes of 8.00. The “EC50 values (agonist activity at adenosine receptors) A2A” value at Adenosine A2a receptor is listed as “Inactive”. Besides, in data set [1] (at 30 μM), the Contractile force is listed as −3% at 30 μM. In addition, the Heart rate result in data set [1] (at 1–100 μM) is “no effect at 1–100 μM”.
Take `O[C@@H]1[C@@H](COC(F)(F)F)C[C@@H](n2cnc3c(N[C@H]4CCN(c5ccc(C(F)(F)F)cn5)C4)ncnc32)[C@@H]1O` [Example 8, (1R,2S,3R,5R)-3-{6-[1-(5-trifluoromethyl-pyridin-2-yl)-pyrrolidin-3(s)-ylamino]-purin-9-yl}-5-trifluoromethoxymethyl-cyclopentane-1,2-diol]: the melting point amounted to 142 °C.
Still for that read-out and setting: for `O[C@@H]1[C@@H](COC(F)(F)F)C[C@@H](n2cnc3c(N[C@H]4CCN(c5ccc(Cl)cn5)C4)ncnc32)[C@@H]1O` [Example 9, (1R,2S,3R,5R)-3-{6-[1-(5-chloro-pyridin-2-yl)-pyrrolidin-3(S) -ylamino]-purin-9-yl}-5-trifluoromethoxymethyl-cyclopentane-1,2-diol] the value was 130 °C.
Still for that read-out and setting: for `CC[C@H](Cc1sccc1Cl)Nc1ncnc2c1ncn2[C@@H]1C[C@H](COC(F)(F)F)[C@@H](O)[C@H]1O` [Example 11, (1R,2S, 3R, 5R)-3-{6-[(R)-1-(3-chloro-thiophen-2-ylmethyl) -propylamino]-purin-9-yl}-5-trifluoromethoxymethyl-cyclopentane-1,2-diol] the value was 140 °C.
